The values below are quoted from earlier work in patent US11975000B1, “Tadalafil oral transmucosal film” (Xiamen LP Pharmaceutical Co., Ltd., priority 2023, dated 2024).

SMILES strings stand for the structures.

For data set [1] the following is noted: in vivo.

For the compound `CN1CC(=O)N2[C@H](c3ccc4c(c3)OCO4)c3[nH]c4ccccc4c3C[C@@H]2C1=O` [Tadalafil, (6R-trans)-6-(1,3-benzodioxol-5-yl) 2,3,6,7,12,12a-hexahydro-2-methyl-pyrazino[1′,2′:1,6]pyrido[3,4-b]indole-1,4-dione], the “Solubility (in words)” value was “practically insoluble in water”. In data set [1], the Duration of action is 24 to 36 h and the Reported maximum duration is 72 h. For the same compound, the Water solubility result (in water at 25° C., U.S. Pat. No. 6,841,167) is recorded as “about 2 μg/mL”.
